Measurements reported in US20240269298A1, “PHOSPHONYL DERIVATIVE, AND COMPOSITION AND PHARMACEUTICAL APPLICATION THEREOF” (XIZANG HAISCO PHARMACEUTICAL CO., LTD., priority 2021, published 2024).
Where two headings read alike, the source gives them in different places.

Tests used:
A431 (EGFR-WT) cells = test: Inhibitory activity on proliferation of A431 (EGFR-WT) cells (CTG, 72 h); type: cell-based; settings: Homo sapiens, A-431
Procedure, shortened: (§1)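 IC50 values come from S-shaped dose-survival fits of CTG signal expressed as % of vehicle. Compound exposure lasted 72 h at 37 °C with 0.1% DMSO; seeding was 3000 A431 cells/well in DMEM+10% FBS and 1000 NCI-H1975 cells/well in RPMI1640+10% FBS.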

[1] = tested on: NCI-H1975 (EGFR-L858R-T790M) cells; test: Inhibitory activity on proliferation of NCI-H1975 (EGFR-L858R-T790M) cells (CTG, 72 h); type: cell-based; settings: Homo sapiens
Procedure, shortened: as §1

[2] = Pharmacokinetic test in mice; type: in vivo; settings: male, ICR, mouse, po, administration i.g. (10 mg/kg), plasma
Procedure, shortened: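 Male ICR mice (20-25 g), fasted 12-14 h before dosing and fed 4 h after, received a single intravenous or intragastric dose. Orbital plasma sampled from 0 to 24 h (5 min-24 h points); LC-MS/MS quantitation for PK parameters and bioavailability.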

[3] = tested on: NCI-H1975 EGFR-L858R-T790M-C797S cells; test: Inhibitory activity on proliferation of NCI-H1975 EGFR-L858R-T790M-C797S cells (CellTiter-Glo, 72 h); type: cell-based; settings: Homo sapiens
Method: NCI-H1975 EGFR-L858R-T790M-C797S cells were cultured in an incubator at 37° C. with 5% CO2, and the culture medium was RPMI1640+10% FBS+100 μg/mL hygromycin. The cells in the logarithmic phase were collected, and the cell suspension was adjusted to an appropriate concentration with a hygromycin-free culture medium, and then plated on a 96-well plate at a density of 1500 cells/well and a volume of 90 μL. 10 μL of the compounds at different concentrations were added, and a vehicle control group (cells plus DMSO) was provided, wherein the concentration of DMSO was 0.1%. The cell culture plate was cultured in an incubator at 37° C. with 5% CO2 for 72 hours. After the incubation was completed, according to operation instructions for a CellTiter-Glo kit (Promega, G7572), 50 μL of CTG solution, which was already pre-melted and equilibrated to room temperature, was added to each well, and the mixtures were uniformly mixed for 2 min using a microplate shaker. The plate was placed at room temperature for 10 min, and then […] signal values were measured using a microplate reader (Envision 2104). […] was processed based on formula (2), and using the GraphPad Prism 5.0 software and nonlinear regression model, S-shaped dose-survival curves were plotted, and IC50 values were calculated. wherein Vsample was the readout of the drug-treated group, and Vvehicle control was the readout of the control group.

[4] = biological target: T1, EGFR protein in NCI-H1975 EGFR-L858R-T790M-C797S cells (Homo sapiens, UniProt P00533, C797S/L858R/T790M); test: Degradation activity on EGFR protein in NCI-H1975 EGFR-L858R-T790M-C797S cells, Method I (western blot, 72 h); type: cell-based; settings: 72 h incubation, EGFR protein relative to DMSO control
T1 construct: expressed in transfected cells; host or cells: NCI-H1975 EGFR-L858R-T790M-C797S (kept under hygromycin selection)
Method: Protein sample preparation: NCI-H1975 EGFR-L858R-T790M-C797S cells were cultured in an incubator at 37° C. with 5% CO2, and the culture medium was RPMI1640+10% FBS+100 μg/mL hygromycin. The cells in the logarithmic phase were collected, and the cell suspension was adjusted to an appropriate concentration with a hygromycin-free culture medium, plated on a 6-well plate at a density of 200000 cells/well and a volume of 2 mL, and cultured overnight in an incubator at 37° C. with 5% CO2. The next day, the compounds at different concentrations were added. DMSO control wells were provided, wherein the concentration of DMSO in all wells was 0.1%. The 6-well plate was cultured in an incubator at 37° C. with 5% CO2 for 72 h, and then 30 μL of RIPA lysates (Beyotime, Cat. P0013B) containing protease inhibitors (Beyotime, Cat. P0013B) were added. The mixtures were lysed on ice for 30 min. Centrifugation was carried out at 13000 rpm/min at 4° C. for 20 min to collect protein supernatant samples, and protein quantification was performed by the BCA method. Samples for western blot detection were prepared.
Western blot detection: 20 μg of protein samples were added to each well, subjected to polyacrylamide gel electrophoresis and transferred to a membrane, and then diluted anti-EGFR (CST, Cat. 4267S) and […] (Kangchen, Cat. KC-5G4) antibodies were added and incubated overnight at 4° C. After washing the membrane, diluted goat anti-rabbit (Licor, Cat. 926-32211) and goat anti-mouse (Licor, Cat. 926-68070) antibodies were added and incubated in the dark for 45 min. Scanning and detection at wavelengths of 700 nm and 800 nm were performed with a far-infrared imaging system (Odyssey).
According to formula (3), the expression level of EGFR protein in the cells relative to the DMSO control group was calculated after incubation with different concentrations of compounds. wherein EGFRcompound was the fluorescence value of EGFR protein after incubation with compounds, and EGFRvehicle was the fluorescence value of EGFR protein in the DMSO control group. Using the Origin 9.2 software, the drug concentration DC50 values when the expression level of EGFR protein was 50% relative to the DMSO control group were calculated.

[5] = read-out: IC50 (value in brackets)

T1 sequence (P00533 25-1210 T790M/C797S/L858R): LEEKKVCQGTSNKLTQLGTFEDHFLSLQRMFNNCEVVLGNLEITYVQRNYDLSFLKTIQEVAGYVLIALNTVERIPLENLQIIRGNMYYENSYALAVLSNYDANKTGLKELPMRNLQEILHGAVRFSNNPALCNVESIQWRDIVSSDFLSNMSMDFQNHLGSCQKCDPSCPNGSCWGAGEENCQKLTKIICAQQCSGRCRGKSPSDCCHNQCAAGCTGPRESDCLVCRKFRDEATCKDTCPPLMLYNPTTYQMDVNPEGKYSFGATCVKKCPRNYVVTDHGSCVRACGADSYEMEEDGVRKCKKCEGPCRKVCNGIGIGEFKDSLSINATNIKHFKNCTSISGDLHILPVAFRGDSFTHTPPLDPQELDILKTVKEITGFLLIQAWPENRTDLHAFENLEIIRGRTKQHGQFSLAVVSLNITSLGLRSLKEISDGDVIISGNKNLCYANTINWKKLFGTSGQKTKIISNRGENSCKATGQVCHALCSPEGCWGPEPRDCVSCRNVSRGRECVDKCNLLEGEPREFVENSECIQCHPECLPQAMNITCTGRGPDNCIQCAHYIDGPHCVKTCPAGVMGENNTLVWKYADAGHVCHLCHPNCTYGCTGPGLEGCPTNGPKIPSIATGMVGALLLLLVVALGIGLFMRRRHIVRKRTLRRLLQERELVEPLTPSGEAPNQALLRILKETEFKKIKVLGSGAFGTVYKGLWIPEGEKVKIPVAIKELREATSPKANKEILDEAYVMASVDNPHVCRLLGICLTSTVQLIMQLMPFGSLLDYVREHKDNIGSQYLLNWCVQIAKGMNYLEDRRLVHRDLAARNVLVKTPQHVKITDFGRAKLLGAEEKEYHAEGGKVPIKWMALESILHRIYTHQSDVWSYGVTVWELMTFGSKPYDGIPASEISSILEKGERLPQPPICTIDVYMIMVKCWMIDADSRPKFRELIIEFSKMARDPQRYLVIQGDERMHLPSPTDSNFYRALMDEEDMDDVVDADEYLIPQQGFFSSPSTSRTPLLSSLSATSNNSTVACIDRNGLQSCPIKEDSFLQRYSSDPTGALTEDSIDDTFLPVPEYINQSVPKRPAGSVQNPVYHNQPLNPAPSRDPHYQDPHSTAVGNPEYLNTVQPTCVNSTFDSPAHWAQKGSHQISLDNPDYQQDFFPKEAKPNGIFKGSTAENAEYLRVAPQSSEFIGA

SMILES | IC50 (A431 (EGFR-WT) cells) [nM] | IC50 ([1]; read-out: IC50 (class symbol)) [nM] | IC50 [1, 5] [nM] | AUC [2] [ng·h/mL] | half-life [2] [h] | IC50 ([3]; read-out: IC50 (class symbol)) [nM] | IC50 ([3]; read-out: IC50 (value)) [nM] | DC50 [4] [nM] | AUC(0-t) [2] [ng·h/mL]
COc1cc(N2CCN(CC3CCN(c4ccc5c(c4)C(=O)N(C4CCC(=O)NC4=O)C5=O)CC3)CC2)c(-c2cnn(C)c2)cc1Nc1ncc(Br)c(Nc2ccc(-c3ccccc3)cc2P(C)(C)=O)n1 (centres unmarked) [Compound 77, 5-(4-((4-(4-((5-bromo-4-((3-(dimethylphosphoryl)-[1,1′-biphenyl]-4-yl)amino)pyrimidin-2-yl)amino)-5-methoxy-2-(1-methyl-1H-pyrazol-4-yl)phenyl)piperazin-1-yl)methyl)piperidin-1-yl)-2-(2,6-dioxopiperidin-3-yl)isoindoline-1,3-dione] | ≥ 10000 | < 100 | 32 | 47300 | 5.79 | < 200 | 46 | < 100 | 
COc1cc(N2CCC(N3CCC4(CCN(c5ccc6c(c5)C(=O)N(C5CCC(=O)NC5=O)C6=O)CC4)CC3)CC2)c(-c2cnn(C)c2)cc1Nc1ncc(Br)c(Nc2ccc(-c3ccccc3)cc2P(C)(C)=O)n1 (centres unmarked) [Compound 84, 5-(9-(1-(4-((5-bromo-4-((3-(dimethylphosphoryl)-[1,1′-biphenyl]-4-yl)amino)pyrimidin-2-yl)amino)-5-methoxy-2-(1-methyl-1H-pyrazol-4-yl)phenyl)piperidin-4-yl)-3,9-diazaspiro[5.5]undecan-3-yl)-2-(2,6-dioxopiperidin-3-yl)isoindoline-1,3-dione] | ≥ 10000 | < 100 | 43 |  |  | < 200 | 47 | < 100 | 4570
COc1cc(N2CCN(C3CCN(c4ccc5c(c4)C(=O)N(C4CCC(=O)NC4=O)C5=O)CC3)CC2)c(-c2cnn(C)c2)cc1Nc1ncc(Cl)c(Nc2ccc(-c3ccccc3)cc2P(C)(C)=O)n1 (centres unmarked) [Compound 100, 5-(4-(4-(4-((5-chloro-4-((3-(dimethylphosphoryl)-[1,1′-biphenyl]-4-yl)amino)pyrimidin-2-yl)amino)-5-methoxy-2-(1-methyl-1H-pyrazol-4-yl)phenyl)piperazin-1-yl)piperidin-1-yl)-2-(2,6-dioxopiperidin-3-yl)isoindoline-1,3-dione] | ≥ 10000 | < 100 | 48 | 33300 | 2.49 | < 200 | 84 | < 100 | 
COc1cc(N2CCC(N3CCC4(CCCN(c5ccc6c(c5)C(=O)N(C5CCC(=O)NC5=O)C6=O)C4)CC3)CC2)c(-c2cnn(C)c2)cc1Nc1ncc(Br)c(Nc2ccc(-c3ccccc3)cc2P(C)(C)=O)n1 (centres unmarked) [Compound 62, 5-(9-(1-(4-((5-bromo-4-((3-(dimethylphosphoryl)-[1,1′-biphenyl]-4-yl)amino)pyrimidin-2-yl)amino)-5-methoxy-2-(1-methyl-1H-pyrazol-4-yl)phenyl)piperidin-4-yl)-2,9-diazaspiro[5.5]undecan-2-yl)-2-(2,6-dioxopiperidin-3-yl)isoindoline-1,3-dione] | ≥ 10000 | < 100 | 28 |  |  |  |  | < 100 | 2310
COc1cc(N2CCC3(CCN(CC4CCN(c5ccc6c(c5)C(=O)N(C5CCC(=O)NC5=O)C6=O)CC4)CC3)CC2)c(-c2cnn(C)c2)cc1Nc1ncc(Cl)c(Nc2ccc(-c3ccccc3)cc2P(C)(C)=O)n1 (centres unmarked) [Compound 59, 5-(4-((9-(4-((5-chloro-4-((3-(dimethylphosphoryl)-[1,1′-biphenyl]-4-yl)amino)pyrimidin-2-yl)amino)-5-methoxy-2-(1-methyl-1H-pyrazol-4-yl)phenyl)-3,9-diazaspiro[5.5]undecan-3-yl)methyl)piperidin-1-yl)-2-(2,6-dioxopiperidin-3-yl)isoindoline-1,3-dione] | ≥ 10000 | < 100 | 92 |  |  |  |  | < 100 | 4460
COc1cc(N2CCC(N3CCN(CC4CCN(c5ccc6c(c5)C(=O)N(C5CCC(=O)NC5=O)C6=O)CC4)CC3)CC2)c(-c2cnn(C)c2)cc1Nc1ncc(Br)c(Nc2ccc(-c3ccccc3)cc2P(C)(C)=O)n1 (centres unmarked) [Trifluoroacetate of compound 23, 5-(4-((4-(1-(4-((5-bromo-4-((3-(dimethylphosphoryl)-[1,1′-biphenyl]-4-yl)amino)pyrimidin-2-yl)amino)-5-methoxy-2-(1-methyl-1H-pyrazol-4-yl)phenyl)piperidin-4-yl)piperazin-1-yl)methyl)piperidin-1-yl)-2-(2,6-dioxopiperidin-3-yl)isoindoline-1,3-dione] | ≥ 10000 | < 100 | 41 |  |  | < 200 | 83 | < 100 | 
COc1cc(N2CCC(N3CCC4(CCCN(c5ccc6c(c5)C(=O)N(C5CCC(=O)NC5=O)C6=O)C4)CC3)CC2)c(-c2cnn(C)c2)cc1Nc1ncc(Cl)c(Nc2ccc(-c3ccccc3)cc2P(C)(C)=O)n1 (centres unmarked) [Compound 60, 5-(9-(1-(4-((5-chloro-4-((3-(dimethylphosphoryl)-[1,1′-biphenyl]-4-yl)amino)pyrimidin-2-yl)amino)-5-methoxy-2-(1-methyl-1H-pyrazol-4-yl)phenyl)piperidin-4-yl)-2,9-diazaspiro [5.5]undecan-2-yl)-2-(2,6-dioxopiperidin-3-yl)isoindoline-1,3-dione] | ≥ 10000 | < 100 | 34 |  |  |  |  | < 100 | 3200
COc1cc(N2CCC(N3CCN(CC4CCN(c5ccc6c(c5)C(=O)N(C5CCC(=O)NC5=O)C6=O)CC4)CC3)CC2)c(C2CC2)cc1Nc1ncc(Br)c(Nc2ccc3nccnc3c2P(C)(C)=O)n1 (centres unmarked) [Compound 2, 5-(4-((4-(1-(4-((5-bromo-4-((5-(dimethylphosphoryl)quinoxalin-6-yl)amino)pyrimidin-2-yl)amino)-2-cyclopropyl-5-methoxyphenyl)piperidin-4-yl)piperazin-1-yl)methyl)piperidin-1-yl)-2-(2,6-dioxopiperidin-3-yl)isoindoline-1,3-dione] | ≥ 10000 | 100 to 500 | 151 |  |  | 200 to 500 | 299 | < 100 | 
COc1cc(N2CCC3(CCN(CC4CCN(c5ccc6c(c5)C(=O)N(C5CCC(=O)NC5=O)C6=O)CC4)CC3)CC2)c(-c2cnn(C)c2)cc1Nc1ncc(Br)c(Nc2ccc(-c3ccccc3)cc2P(C)(C)=O)n1 (centres unmarked) [Compound 57, 5-(4-((9-(4-((5-bromo-4-((3-(dimethylphosphoryl)-[1,1′-biphenyl]-4-yl)amino)pyrimidin-2-yl)amino)-5-methoxy-2-(1-methyl-1H-pyrazol-4-yl)phenyl)-3,9-diazaspiro[5.5]undecan-3-yl)methyl)piperidin-1-yl)-2-(2,6-dioxopiperidin-3-yl)isoindoline-1,3-dione] | ≥ 10000 | < 100 | 21 |  |  | < 200 | 65 | < 100 | 
